Assay results taken from US6995173B2, “Methods for the treatment of central nervous system disorders in certain patient groups” (R.T. Alamo Ventures I, LLC, priority 2001, dated 2006).

Target: T1, PDE6 partially purified from bovine retinal rod and activated by trypsin (Bos taurus, UniProt P11541+P23439)
T1 construct: from tissue; host or cells: bovine retinal rod
T1 sequence (P11541 2-856 limits assumed): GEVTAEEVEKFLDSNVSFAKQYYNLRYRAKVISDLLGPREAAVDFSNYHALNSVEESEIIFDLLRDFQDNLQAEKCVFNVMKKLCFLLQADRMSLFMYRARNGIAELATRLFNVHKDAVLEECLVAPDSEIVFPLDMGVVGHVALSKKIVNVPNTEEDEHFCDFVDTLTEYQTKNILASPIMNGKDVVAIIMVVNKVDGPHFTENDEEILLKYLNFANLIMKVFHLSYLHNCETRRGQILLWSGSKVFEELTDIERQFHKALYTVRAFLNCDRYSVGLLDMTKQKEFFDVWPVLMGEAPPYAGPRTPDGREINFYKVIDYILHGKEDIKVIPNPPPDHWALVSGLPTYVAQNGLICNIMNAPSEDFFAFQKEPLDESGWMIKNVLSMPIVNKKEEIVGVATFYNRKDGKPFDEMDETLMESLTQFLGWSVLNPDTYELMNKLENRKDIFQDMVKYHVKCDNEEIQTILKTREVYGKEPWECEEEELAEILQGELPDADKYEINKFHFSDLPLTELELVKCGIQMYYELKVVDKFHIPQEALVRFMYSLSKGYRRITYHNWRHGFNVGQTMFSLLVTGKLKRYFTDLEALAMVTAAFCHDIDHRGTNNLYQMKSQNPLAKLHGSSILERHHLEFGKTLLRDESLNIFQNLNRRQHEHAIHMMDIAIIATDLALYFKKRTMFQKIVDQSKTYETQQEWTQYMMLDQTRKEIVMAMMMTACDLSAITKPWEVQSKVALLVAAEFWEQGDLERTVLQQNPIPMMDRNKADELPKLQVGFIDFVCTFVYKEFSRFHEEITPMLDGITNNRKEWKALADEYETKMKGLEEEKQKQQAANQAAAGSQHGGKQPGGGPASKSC
T1 sequence (P23439 2-850 limits assumed): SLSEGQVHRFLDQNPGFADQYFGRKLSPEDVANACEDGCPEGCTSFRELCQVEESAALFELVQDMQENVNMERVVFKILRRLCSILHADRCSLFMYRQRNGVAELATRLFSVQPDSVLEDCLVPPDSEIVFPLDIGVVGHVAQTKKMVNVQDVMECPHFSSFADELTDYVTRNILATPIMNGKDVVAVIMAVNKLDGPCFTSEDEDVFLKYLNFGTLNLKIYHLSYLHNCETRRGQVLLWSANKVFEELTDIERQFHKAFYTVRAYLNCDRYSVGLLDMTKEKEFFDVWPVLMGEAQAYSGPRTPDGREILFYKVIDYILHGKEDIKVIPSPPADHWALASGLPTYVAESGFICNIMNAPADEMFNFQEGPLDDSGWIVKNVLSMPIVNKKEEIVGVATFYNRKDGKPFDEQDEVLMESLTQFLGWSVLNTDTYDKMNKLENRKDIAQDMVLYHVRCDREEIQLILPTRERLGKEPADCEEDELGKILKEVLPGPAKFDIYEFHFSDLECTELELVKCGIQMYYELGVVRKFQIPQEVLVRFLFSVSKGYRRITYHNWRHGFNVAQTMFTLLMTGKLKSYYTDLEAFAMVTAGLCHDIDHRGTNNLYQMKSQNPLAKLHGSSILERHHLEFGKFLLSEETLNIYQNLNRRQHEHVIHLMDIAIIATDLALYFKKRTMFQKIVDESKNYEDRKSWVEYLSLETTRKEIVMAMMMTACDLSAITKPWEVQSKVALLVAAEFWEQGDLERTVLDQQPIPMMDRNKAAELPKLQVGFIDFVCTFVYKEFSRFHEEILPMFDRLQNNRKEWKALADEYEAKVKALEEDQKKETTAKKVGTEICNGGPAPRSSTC
Experiment: PDE6 biochemical enzyme assay ([3H]cGMP hydrolysis, scintillation counting)
Conditions: Example 2; versus Viagra 0.3 μM

- times more compound on a molar basis than Viagra for such levels of PDE6 inhibition: more than 300 times
Compound: Cn1cc([S+](C)[O-])c(=O)c2ccc(F)cc21 (racemic) [Flosequinan, 7-fluoro-1-methyl-3-methylsulphinyl-4-quinolone]
